Results as given in publication PMC3578121 (Journal of molecular biology, 2012).
“And” between values parts separate entries of the source, which are not always exact repeats. Equal entries are not always repeated. Where two headings read alike, the source gives them in different places.

How the values were obtained:
[1] = target: VCCβ-prism (isolated β-prism domain of Vibrio cholerae cytolysin) (Vibrio cholerae serotype O1, UniProt P09545); test: biochemical; type: binding
[2] = tested on: D617K mutant of VCC; type: binding, Vibrio cholerae
[3] = tested on: rabbit whole blood lysis by wild-type VCC
[4] = target: VCCβ-prism (Vibrio cholerae serotype O1, UniProt P09545); type: binding
[5] = tested on: VCC; conditions: cited from earlier work
[6] = tested on: VCCWT; type: binding, Vibrio cholerae

VCCβ-prism, sequence (P09545 611-741 limits assumed): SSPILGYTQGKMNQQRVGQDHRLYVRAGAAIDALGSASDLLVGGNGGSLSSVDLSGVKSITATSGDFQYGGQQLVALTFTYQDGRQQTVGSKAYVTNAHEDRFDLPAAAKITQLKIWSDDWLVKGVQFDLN
VCCβ-prism (isolated β-prism domain of Vibrio cholerae cytolysin), sequence (P09545 611-741 limits assumed): as above

**Q.** What does the source list for `OC[C@H]1O[C@H](O[C@H]2[C@H](O)[C@@H](O)C(O)O[C@@H]2CO)[C@H](O)[C@@H](O)[C@@H]1O` (mixture of isomers) [Maltose, glucose-α1,4-glucose]?
**A.** KD of maltose relative to KD of Me-α-mannose [1]: 10 fold; Kd [1]: 30.9 ± 3.17 mM; ΔG [1]: -2090 cal/mol

**Q.** For `C[C@H](O)[C@@H](O)[C@@H](O)[C@H](O)C=O` [Fucose, L-fucose], which “Binding detected by ITC” value [1] is on record?
**A.** did not exhibit measurable binding

**Q.** What does the source list for `OC[C@H]1OC(O)[C@H](O)[C@@H](O)[C@@H]1O` (stereo partly drawn) [Glucose]?
**A.** Kd [1]: 12 ± 0.6 mM; ΔG [1]: -2679 cal/mol

**Q.** Which Kd [1] does the source give for `OC[C@H]1OC(O)[C@@H](O)[C@@H](O)[C@@H]1O` (stereo partly drawn) [Mannose, D-mannose] here?
**A.** 14.8 ± 1.18 mM

**Q.** What about the ΔG [1] of the same compound?
**A.** -2456 cal/mol

**Q.** Which “Binding detected by ITC” value [1] does the source give for `CO[C@H]1O[C@H](CO)[C@H](O)[C@H](O)[C@H]1O` [Me-α-Galactose, Me-α-D-galactose] here?
**A.** did not bind

**Q.** For `COC1OC(CO)C(O)C(O)C1O` [Me-α-Glucose, Me-α-D-glucose], which Kd [1] is on record?
**A.** 7.1 mM and 7.09 mM

**Q.** And the ΔG [1]?
**A.** -2944 cal/mol

**Q.** Which “Binding detected by ITC” value [2] does the source give for `COC1OC(CO)C(O)C(O)C1O` (stereo not drawn) [Me-α-Mannose, methyl-α-mannose] here?
**A.** could not detect measurable binding

**Q.** What about the “Increase in affinity of Me-α-D-mannose over D-mannose” value [1] of the same compound?
**A.** roughly five-fold increase

**Q.** What about the Kd [1] of the same compound?
**A.** 3.24 ± 0.1 mM

**Q.** What about the ΔG [1] of the same compound?
**A.** -3424 cal/mol

**Q.** And the “Effect on half-life (t1/2) of rabbit blood hemolysis by VCC” value [3]?
**A.** no effect

**Q.** With `CO[C@@H]1O[C@H](CO)[C@@H](O)[C@H](O)[C@@H]1O` [Me-β-D-mannose] as the compound, how does the “Binding detected by ITC” value [1] read?
**A.** loss of binding

**Q.** With `COC1OC(CO)C(O)C(O)C1O` [Me-β-Galactose, Me-β-D-galactose] as the compound, how does the “Binding detected by ITC” value [1] read?
**A.** did not bind

**Q.** With `COC1OC(CO)C(O)C(O)C1O` [Me-β-Glucose, Me-β-D-glucose] as the compound, how does the “Binding detected by ITC” value [1] read?
**A.** did not bind

**Q.** For `CC(=O)N[C@@H]1[C@@H](O)[C@H](O)[C@@H](CO)O[C@H]1O` [N-acetylglucosamine, N-acetyl-D-glucosamine], which “Binding detected by ITC” value [1] is on record?
**A.** did not exhibit measurable binding

**Q.** For `O=C[C@H](O)[C@@H](O)[C@H](O[C@@H]1O[C@H](CO)[C@@H](O)[C@H](O)[C@H]1O)[C@H](O)CO` [cellobiose, glucose-β1,4-glucose], which “Binding detected by ITC” value [1] is on record?
**A.** did not bind

**Q.** Which results are given for “GlcNAcβ1-2Manα1-6(GlcNAcβ1-2Manα1-3)Manβ1-4GlcNAcβ1-4GlcNAc [NGA2]”?
**A.** association rate ka [4]: 37,000 M^−1s^−1; dissociation rate kd [4]: 0.040 s⁻¹; Kd ([4]; read-out: Affinity (approximate summary)): ~100 nM; Kd ([4]; read-out: KD (equilibrium analysis)): 183 nM; Kd ([4]; read-out: KD (kinetic fit)): 108 nM

**Q.** With fetuin as the compound, how does the “Inhibition of VCC activity” value [5] read?
**A.** inhibited

**Q.** For galactose-α-1,4-galactose [galabiose], which “Average fluorescence of VCC binding to glycan” value (shortened to “Average fluorescence”) [6] is on record?
**A.** ≤ 100 RFUs

**Q.** With “galactose-β-1,4(fucose-α-1,3)N-acetyl glucosamine [Lewis X]” as the compound, how does the “Average fluorescence” value [6] read?
**A.** ≤ 100 RFUs

**Q.** For lacto-N-biose, which “Average fluorescence” value [6] is on record?
**A.** ≤ 100 RFUs
